Our source for the IC50 values is ChEMBL document CHEMBL1158393, “Synthesis, characterization and in vitro antiproliferative activities of new 13-cis-retinoyl ferrocene derivatives” (Eur J Med Chem, 2009).

Holding throughout (type): functional, cell-based
The nature of assay [1]: Cytotoxicity against human Bel7404 cells after 24 hrs by MTT assay. The conditions noted are these: BEL-7404, 24 h. (Formazan colour is commonly taken as a measure of viable cells.)
A short description of assay [2]: Cytotoxicity against human Tca cells after 24 hrs by MTT assay.
The next assay has as its system A549. The assay is described as follows: Cytotoxicity against human A549 cells after 24 hrs by MTT assay. Particulars: A549, 24 h.

As usually defined, the IC50 is the concentration needed to halve the response being measured. In the case of `CC1=C(/C=C/C(C)=C/C=C/C(C)=C\C(=O)O)C(C)(C)CCC1` [ISOTRETINOIN], the figures for the IC50 (in assay [1]; in assay [2]; with A549) were 42.6 µM, 39.7 µM and 35.8 µM, respectively.
